In PMC3090393, “New Noncovalent Inhibitors of Penicillin-Binding Proteins from Penicillin-Resistant Bacteria” (PLoS ONE, 2011):
In brackets after ≈: the same amount, converted by molar mass. Where two headings read alike, the source gives them in different places.

Columns and labels:
[1] = target: PBP5fm (Enterococcus faecium, UniProt Q47759); assay: PBP5fm enzymatic inhibition assay (fluorescein-labeled ampicillin, residual penicillin binding activity); format: biochemical, Enterococcus faecium D63r; details: 4 h; residual activity of the enzyme at 1 mM inhibitor; 0.01% Triton X-100; read-out: PBP5fm RA [%]
Experimental: PBP2a from Staphylococcus aureus ATCC 43300 and PBP5fm from Enterococcus faecium D63r were overproduced and purified as described previously, [18].
Each of the purified PBPs (2.5 µM) were first incubated with 1 mM potential inhibitor in 100 mM phosphate buffer, 0.01% Triton X-100[19], pH 7, for 4 h at 30°C. Then, 25 µM fluorescein-labeled ampicillin[20] was added to detect the residual penicillin binding activity (RA). The samples were further incubated for 30 min at 37°C in a total volume of 20 µL. Denaturation buffer was added (0.1 M Tris/HCl, pH 6.8, containing 25% glycerol, 2% SDS, 20% β-mercaptoethanol and 0.02% bromophenol blue) and the samples were heated to 100°C for 1 min. The samples were then loaded onto a 10% SDS-acrilamide gel (10×7 cm) and electrophoresis was performed for 45 min at 180 V (12 mA). Detection and quantification of the RAs were with Molecular Image FX equipment and Quantity One software (BioRad, Hercules, CA, USA). Three independent experiments were carried out for each inhibitor.

[2] = test system: Bacillus subtilis ATCC 6633; assay: In-vitro antibacterial activity (MIC, broth microdilution); format: cell-based; details: ATCC6633
Experimental: (§1) Determination of the antibacterial activities was carried out on microtiter plates, in 200 µL (final volume) of Müeller-Hinton Broth (MHB), following EUCAST (European Committee on Antimicrobial Susceptibility testing)/CLSI (Clinical and Laboratory Standard Institute) recommended procedures, [25]. The compounds were solubilized in MHB, just before use. Inocula were prepared for each strain by resuspending isolated colonies from 18 h cultured plates. Equivalents of 0.5 Mac Farland turbidity standards (approximately 1×10^8 CFU mL^−1) were prepared in saline solution ([…]) and then diluted 200-fold in MBH.

[3] = test system: Citrobacter freundii ATCC 8090; assay: as above; format: cell-based; details: ATCC8090
Experimental: as §1

[4] = test system: Enterococcus faecalis ATCC 29212; assay: as above; format: cell-based; details: ATCC29212
Experimental: as §1

[5] = test system: Enterococcus faecalis ATCC 7937; assay: as above; format: cell-based; details: ATCC7937
Experimental: as §1

[6] = test system: Enterococcus faecium ATCC 19434; assay: as above; format: cell-based; details: ATCC19434
Experimental: as §1

[7] = test system: Enterococcus hirae ATCC 8790; assay: as above; format: cell-based; details: ATCC8790
Experimental: as §1

[8] = test system: Escherichia coli ATCC 8739; assay: as above; format: cell-based; details: ATCC8739
Experimental: as §1

[9] = test system: Klebsiella pneumoniae ATCC 13883; assay: as above; format: cell-based; details: ATCC13883
Experimental: as §1

[10] = test system: Listeria innocua ATCC 33090; assay: as above; format: cell-based; details: ATCC33090
Experimental: as §1

[11] = test system: Listeria monocytogenes ATCC 14780; assay: as above; format: cell-based; details: ATCC14780
Experimental: as §1

[12] = test system: Micrococcus luteus ATCC 9341; assay: as above; format: cell-based; details: ATCC9341
Experimental: as §1

[13] = test system: Proteus mirabilis ATCC 29936; assay: as above; format: cell-based; details: ATCC29936
Experimental: as §1

[14] = test system: Pseudomonas aeruginosa ATCC 27853; assay: as above; format: cell-based; details: ATCC27853
Experimental: as §1

[15] = test system: Staphylococcus aureus ATCC 25923; assay: as above; format: cell-based; details: ATCC25923
Experimental: as §1

[16] = test system: Staphylococcus aureus ATCC 43300 (MRSA); assay: as above; format: cell-based
Experimental: as §1

[17] = test system: Staphylococcus aureus mp 1 (inducible MRSA); assay: as above; format: cell-based
Experimental: as §1

[18] = test system: Staphylococcus epidermidis ATCC 12228; assay: as above; format: cell-based; details: ATCC12228
Experimental: as §1

[19] = test system: Streptococcus pneumoniae ATCC 33400; assay: as above; format: cell-based; details: ATCC33400
Experimental: as §1

[20] = test system: Streptococcus pneumoniae ATCC 49619; assay: as above; format: cell-based; details: ATCC49619
Experimental: as §1

[21] = test system: Streptococcus pneumoniae D39; assay: as above; format: cell-based
Experimental: as §1

[22] = test system: all of the Staphylococcus aureus tested strains; assay: In-vitro antibacterial activity (MIC), Staphylococcus aureus strains; format: cell-based
Experimental: as §1

[23] = test system: S. aureus ATCC43300 resistant strain; assay: Killing curves experiments; format: cell-based, Staphylococcus aureus; details: concentration equivalent to 4 times the MIC; data not shown

PBP5fm, sequence (Q47759 entry or part of it): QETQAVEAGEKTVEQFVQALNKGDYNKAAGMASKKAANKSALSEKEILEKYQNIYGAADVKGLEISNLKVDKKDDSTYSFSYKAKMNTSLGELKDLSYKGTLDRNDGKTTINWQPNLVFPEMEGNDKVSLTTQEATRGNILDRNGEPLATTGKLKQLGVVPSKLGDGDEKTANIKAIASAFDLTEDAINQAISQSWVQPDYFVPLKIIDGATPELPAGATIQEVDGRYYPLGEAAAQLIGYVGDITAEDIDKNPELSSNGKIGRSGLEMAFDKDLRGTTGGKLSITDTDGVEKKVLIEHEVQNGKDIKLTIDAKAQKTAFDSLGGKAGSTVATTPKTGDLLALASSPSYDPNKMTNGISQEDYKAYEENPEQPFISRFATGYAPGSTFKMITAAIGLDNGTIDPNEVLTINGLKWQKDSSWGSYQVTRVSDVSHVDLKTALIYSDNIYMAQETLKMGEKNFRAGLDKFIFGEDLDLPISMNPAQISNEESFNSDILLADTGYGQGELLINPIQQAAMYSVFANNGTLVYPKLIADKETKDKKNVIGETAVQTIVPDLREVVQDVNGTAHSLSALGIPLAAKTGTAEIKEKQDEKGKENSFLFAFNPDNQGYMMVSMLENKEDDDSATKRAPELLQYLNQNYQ

For `CCCCOc1ccc2cc(S(=O)(=O)Nc3ccccc3C(=O)O)ccc2c1` [compound 1, 2-(6-butoxynaphthalene-2-sulfonamido)benzoic acid], the activity at 1000 µM [1] was 100%, the MIC [2] was 2 µg/mL (≈ 5.01 µM) and the MIC [3] was greater than 1020 µg/mL. It also gave an MIC [4] of 32 µg/mL (≈ 80.1 µM), an MIC [5] of 16 µg/mL (≈ 40.1 µM) and an MIC [6] of 64 µg/mL (≈ 160 µM). It also gave an MIC [7] of 16 µg/mL (≈ 40.1 µM), an MIC [8] greater than 1020 µg/mL and an MIC [9] greater than 1020 µg/mL. For the same compound, the MIC [10] was 16 µg/mL (≈ 40.1 µM), the MIC [11] was 16 µg/mL (≈ 40.1 µM) and the MIC [12] was 2 µg/mL (≈ 5.01 µM). For the same compound, the MIC [13] was greater than 1020 µg/mL, the MIC [14] was greater than 1020 µg/mL and the MIC [15] was 32 µg/mL (≈ 80.1 µM). For the same compound, the MIC [16] was 32 µg/mL (≈ 80.1 µM), the MIC [17] was 32 µg/mL (≈ 80.1 µM) and the MIC [18] was 32 µg/mL (≈ 80.1 µM). The MIC [19] was 1 µg/mL (≈ 2.5 µM), the MIC [20] was 1 µg/mL (≈ 2.5 µM) and the MIC [21] was 1 µg/mL (≈ 2.5 µM). For the same compound, the MIC ([22]; MRSA, read-out: minimum inhibitory concentration (MIC) against MRSA) was 32 µg/mL, the MIC ([22]; all S. aureus tested strains, converted from µg/ml, read-out: MIC value for all of the Staphylococcus aureus tested strains) was 80 µM and the MIC ([22]; all S. aureus tested strains, read-out: MIC value for all of the Staphylococcus aureus tested strains) was 32 µg/mL. For the same compound, the “killing curves, bacterial count” value [23] was “no viable cells were observed after 120 min”.
